{"source": "patent US8728493B2", "about": "“Polymer based compositions and conjugates of non-steroidal anti-inflammatory drugs” (Nektar Therapeutics, priority 2005, dated 2014)", "origin": "cited, not measured here", "conditions": "non-conjugated drug; conditions not stated"}
{"compound": "O=C(c1ccccc1)c1ccc2n1CCC2C(=O)O", "note": "(stereo not shown) [non-conjugated ketorolac, ketorolac]", "values": [{"measurement": "half-life of non-conjugated ketorolac", "result": "approximately 2 hours"}]}
